Experimental data from US20210269451A1, “PYRIDINYL HETEROCYCLYL COMPOUNDS FOR THE TREATMENT OF AUTOIMMUNE DISEASE” (Hoffmann-La Roche Inc., priority 2018, published 2021).

How the values were obtained:
hERG channel = molecular target: T1, hERG channel (Homo sapiens, UniProt Q12809); test: hERG channel inhibition assay (patch-clamp, CHOhERG cells); assay type: cell-based; conditions: for IC50 / IC20: CHOhERG cells, whole-cell patch-clamp; for IC20: human, CHO cells stably expressing hERG (CHOhERG); for hERG IC20/TLR7 IC50 / hERG IC20/TLR8 IC50 / hERG IC20/TLR9 IC50: safety ratio;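 for hERG IC20/TLR7 IC50: ratio above 30 indicates an adequate safety window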;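 for hERG IC20/TLR8 IC50: ratio above 30 indicates an adequate safety window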
T1 construct: expressed in transfected cells; host or cells: CHO (Chinese hamster ovary), CHOhERG
T1 sequence (Q12809 whole entry): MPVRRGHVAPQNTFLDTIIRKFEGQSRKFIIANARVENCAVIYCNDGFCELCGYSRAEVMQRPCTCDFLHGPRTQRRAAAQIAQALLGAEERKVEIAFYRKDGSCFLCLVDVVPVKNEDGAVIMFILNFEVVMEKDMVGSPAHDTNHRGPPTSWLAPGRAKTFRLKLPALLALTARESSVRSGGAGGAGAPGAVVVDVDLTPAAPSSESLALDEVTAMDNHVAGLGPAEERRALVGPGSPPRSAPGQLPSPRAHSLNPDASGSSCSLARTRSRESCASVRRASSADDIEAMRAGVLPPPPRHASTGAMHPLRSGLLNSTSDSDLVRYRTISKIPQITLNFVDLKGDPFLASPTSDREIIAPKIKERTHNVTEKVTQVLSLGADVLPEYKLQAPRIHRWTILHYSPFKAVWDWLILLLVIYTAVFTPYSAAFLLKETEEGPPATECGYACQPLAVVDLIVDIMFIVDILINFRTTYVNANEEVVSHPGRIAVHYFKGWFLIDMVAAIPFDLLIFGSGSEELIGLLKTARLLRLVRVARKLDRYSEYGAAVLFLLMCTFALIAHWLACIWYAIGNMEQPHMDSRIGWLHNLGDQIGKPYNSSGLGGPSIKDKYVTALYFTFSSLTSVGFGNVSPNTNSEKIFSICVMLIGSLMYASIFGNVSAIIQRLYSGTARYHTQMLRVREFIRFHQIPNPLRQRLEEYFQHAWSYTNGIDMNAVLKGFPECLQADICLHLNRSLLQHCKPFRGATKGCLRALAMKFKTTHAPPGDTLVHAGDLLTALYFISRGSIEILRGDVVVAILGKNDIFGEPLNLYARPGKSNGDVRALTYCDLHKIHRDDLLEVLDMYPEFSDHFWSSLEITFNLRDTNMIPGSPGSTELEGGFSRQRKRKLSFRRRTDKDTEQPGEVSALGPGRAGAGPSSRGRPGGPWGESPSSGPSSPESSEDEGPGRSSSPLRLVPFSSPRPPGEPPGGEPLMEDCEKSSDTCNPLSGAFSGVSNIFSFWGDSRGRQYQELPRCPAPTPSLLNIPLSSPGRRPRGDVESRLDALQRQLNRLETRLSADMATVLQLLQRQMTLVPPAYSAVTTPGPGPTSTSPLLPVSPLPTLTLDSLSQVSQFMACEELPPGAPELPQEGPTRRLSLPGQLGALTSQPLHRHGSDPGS
Experimental: hERG channel inhibition assay:
The hERG K^+ channels were cloned in humans and stably expressed in a CHO (Chinese hamster ovary) cell line. CHOhERG cells were used for patch-clamp (voltage-clamp, whole-cell) experiments. Cells were stimulated by a voltage pattern to activate hERG channels and conduct IKhERG currents (rapid delayed outward rectifier potassium current of the hERG channel). After the cells were stabilized for a few minutes, the amplitude and kinetics of IKhERG were recorded at a stimulation frequency of 0.1 Hz (6 bpm). Thereafter, the test compound was added to the preparation at increasing concentrations. For each concentration, an attempt was made to reach a steady-state effect, usually, this was achieved within 3-10 min at which time the next highest concentration was applied. The amplitude and kinetics of IKhERG are recorded in each concentration of the drug which were compared to the control values (taken as 100%). (references: Redfern W S, Carlsson L, Davis A S, Lynch W G, MacKenzie I, Palethorpe S, Siegl P K, Strang I, Sullivan A T, Wallis R, Camm A J, Hammond T G. 2003; Relationships between preclinical cardiac electrophysiology, clinical QT interval prolongation and torsade de pointes for a broad range of drugs: evidence for a provisional safety margin in drug development. Cardiovasc. Res. 58:32-45, Sanguinetti M C, Tristani-Firouzi M. 2006; hERG potassium channels and cardiac arrhythmia. Nature 440:463-469, Webster R, Leishman D, Walker D. 2002; Towards a drug concentration effect relationship for QT prolongation and torsades de pointes. Curr. Opin. Drug Discov. Devel. 5:116-26).

[1] = Human microsome stability assay; assay type: in vitro ADME; conditions: 1 μM test compound, 0.5 mg/mL liver microsomal protein, 37° C.
Experimental: Human microsome stability assay
The human microsomal stability assay is used for early assessment of metabolic stability of a test compound in human liver microsomes.
Human liver microsomes (Cat.NO.: 452117, Corning, USA;Cat.NO.:H2610, Xenotech, USA) were preincubated with test compound for 10 minutes at 37° C. in 100 mM potassium phosphate buffer, pH 7.4. The reactions were initiated by adding NADPH regenerating system. The final incubation mixtures contained 1 μM test compound, 0.5 mg/mL liver microsomal protein, 1 mM MgCl2, 1 mM NADP, 1 unit/mL isocitric dehydrogenase and 6 mM isocitric acid in 100 mM potassium phosphate buffer, pH 7.4. After incubation times of 0, 3, 6, 9, 15 and 30 minutes at 37° C., 300 μL of cold acetonitrile (including internal standard) was added to 100 μL incubation mixture to terminate the reaction. Following precipitation and centrifugation, the amount of compound remaining in the samples were determined by LC-MS/MS. Controls of no NADPH regenerating system at zero and 30 minutes were also prepared and analyzed.

Row | Structure (SMILES) | IC50 (hERG channel) | IC20 (hERG channel) | hERG IC20/TLR7 IC50 (hERG channel) | hERG IC20/TLR8 IC50 (hERG channel) | hERG IC20/TLR9 IC50 (hERG channel) | Clearance of Human microsome [1]
1 | Cc1cc(N2CC3(CN(C[C@H]4CN(c5ccc(C#N)c6ncccc56)C[C@@H](C)O4)C3)C2)cc(CO)n1 [Example 1, 5-[(2S,6R)-2-[[2-[2-(hydroxymethyl)-6-methyl-4-pyridyl]-2,6-diazaspiro[3.3]heptan-6-yl]methyl]-6-methyl-morpholin-4-yl]quinoline-8-carbonitrile] | > 20 µM | > 10 µM | >357.1 | >123.5 | >294.1 | 6.35 mL/min/kg
2 | Cc1cc(N2CCN(C[C@H]3CN(c4ccc(C#N)c5ncccc45)C[C@@H](C)O3)[C@@H](C)C2)cc(CO)n1 [Example 4A] |  |  |  |  |  | 6.15 mL/min/kg
3 | Cc1cc(NC2CCN(C[C@H]3CN(c4ccc(C#N)c5ncccc45)C[C@@H](C)O3)CC2)cc(CO)n1 [Example 5] | > 20 µM | 7.18 µM | 121.8 | 217.7 | 224.5 | 7.47 mL/min/kg
4 | Cc1cc(NC2CCN(C[C@H]3CN(c4ccc(C#N)c5ncccc45)C[C@@H](C)O3)C2)cc(CO)n1 (stereo partly drawn) [Example 6] | > 20 µM | 5.83 µM | 132.4 | 109.9 | 142.1 | 6.15 mL/min/kg
5 | Cc1cc(NC2CN(C[C@H]3CN(c4ccc(C#N)c5ncccc45)C[C@@H](C)O3)C2)cc(C)n1 [Example 7] | > 20 µM | > 10 µM | >384.6 | >322.6 | >256.4 | 6.15 mL/min/kg
6 | Cc1cc(N2CCC3(CN(C[C@H]4CN(c5ccc(C#N)c6ncccc56)C[C@@H](C)O4)C3)C2)cc(C)n1 [Example 9] |  |  |  |  |  | 6.15 mL/min/kg
7 | C[C@@H]1CN(c2ccc(C#N)c3ncccc23)C[C@H](CNC2CCN(c3ccnc(N)c3)CC2)O1 [Example 20, 5-[(2S,6R)-2-[[[1-(2-amino-4-pyridyl)-4-piperidyl]amino]methyl]-6-methyl-morpholin-4-yl]quinoline-8-carbonitrile] |  |  |  |  |  | 6.15 mL/min/kg
8 | Cc1cc(N2CC[C@@H](NC[C@H]3CN(c4ccc(C#N)c5ncccc45)C[C@@H](C)O3)C2)cc(CO)n1 [Example 28] |  |  |  |  |  | 6.25 mL/min/kg
9 | Cc1cc(N2CC(NC[C@H]3CN(c4ccc(C#N)c5ncccc45)C[C@@H](C)O3)C2)cc(CO)n1 [Example 30] | > 10 µM | 4.51 µM | 69.4 | 322.0 | 51.2 | 7.14 mL/min/kg
10 | Cc1cc(N2CC(N(C)C[C@H]3CN(c4ccc(C#N)c5ncccc45)C[C@@H](C)O3)C2)cc(CO)n1 [Example 37] |  |  |  |  |  | 6.15 mL/min/kg
11 | Cc1cc(N2CCN(C[C@H]3CN(c4ccc(C#N)c5ncccc45)C[C@@H](C)O3)CC2)cc(N)n1 [Example 40, 5-[(2S,6R)-2-[[4-(2-amino-6-methyl-4-pyridyl)piperazin-1-yl]methyl]-6-methyl-morpholin-4-yl]quinoline-8-carbonitrile] |  |  |  |  |  | 6.15 mL/min/kg
12 | Cc1cc(N2CC3(CN(C[C@H]4CN(c5ccc(C#N)c6ncccc56)C[C@@H](C)O4)C3)C2)cc(C(C)O)n1 (stereo partly drawn) [Example 44, 5-[(2S,6R)-2-[[2-[2-(1-hydroxyethyl)-6-methyl-4-pyridyl]-2,6-diazaspiro[3.3]heptan-6-yl]methyl]-6-methyl-morpholin-4-yl]quinoline-8-carbonitrile] |  |  |  |  |  | 7.21 mL/min/kg
13 | C[C@@H]1CN(c2ccc(C#N)c3ncccc23)C[C@H](CN2CCN(c3cc(N)nc(CO)c3)CC2)O1 [Example 45, 5-[(2S,6R)-2-[[4-[2-amino-6-(hydroxymethyl)-4-pyridyl]piperazin-1-yl]methyl]-6-methyl-morpholin-4-yl]quinoline-8-carbonitrile] | > 20 µM | > 10 µM | >256.4 | >714.3 | >109.9 | 
14 | CC(O)c1cc(N2CC3(CN(C[C@H]4CN(c5ccc(C#N)c6ncccc56)C[C@@H](C)O4)C3)C2)ccn1 (stereo partly drawn) [Example 46, 5-[(2S,6R)-2-[[2-[2-(1-hydroxyethyl)-4-pyridyl]-2,6-diazaspiro[3.3]heptan-6-yl]methyl]-6-methyl-morpholin-4-yl]quinoline-8-carbonitrile] | > 10 µM | 4.69 µM | 146.6 | 52.1 | 146.6 | 7.66 mL/min/kg
15 | C[C@@H]1CN(c2ccc(C#N)c3ncccc23)C[C@H](CN2CC3(C2)CN(c2ccnc(C(C)(C)O)c2)C3)O1 [Example 48, 5-[(2S,6R)-2[[2-[2-(1-hydroxy-1-methyl-ethyl)-4-pyridyl]-2,6-diazaspiro[3.3]heptan-6-yl]methyl]-6-methyl-morpholin-4-yl]quinoline-8-carbonitrile] |  |  |  |  |  | 6.87 mL/min/kg
16 | C[C@@H]1CN(c2ccc(C#N)c3ncccc23)C[C@H](CN2CC3(C2)CN(c2ccnc(C4CC4)c2)C3)O1 [Example 49, 5-[(2S,6R)-2[[2-(2-cyclopropyl-4-pyridyl)-2,6-diazaspiro[3.3]heptan-6-yl]methyl]-6-methyl-morpholin-4-yl]quinoline-8-carbonitrile] |  |  |  |  |  | 6.39 mL/min/kg
17 | Cc1cc(N2CCN(C[C@H]3CN(c4ccc(C#N)c5ncccc45)C[C@@H](C)O3)CC2)cc(CO)n1 [Example 50] |  |  |  |  |  | 7.72 mL/min/kg
